Values joined by “and” are separate entries in the source; they are usually repeats but may differ in a detail not shown here. Equal entries are not always repeated.
How the values were obtained:
[1] = molecular target: Protein kinase C delta type (Homo sapiens, UniProt Q05655)
[2] = molecular target: Protein kinase C alpha type (Homo sapiens, UniProt P17252)

Chain of Protein kinase C delta type (Q05655 whole entry): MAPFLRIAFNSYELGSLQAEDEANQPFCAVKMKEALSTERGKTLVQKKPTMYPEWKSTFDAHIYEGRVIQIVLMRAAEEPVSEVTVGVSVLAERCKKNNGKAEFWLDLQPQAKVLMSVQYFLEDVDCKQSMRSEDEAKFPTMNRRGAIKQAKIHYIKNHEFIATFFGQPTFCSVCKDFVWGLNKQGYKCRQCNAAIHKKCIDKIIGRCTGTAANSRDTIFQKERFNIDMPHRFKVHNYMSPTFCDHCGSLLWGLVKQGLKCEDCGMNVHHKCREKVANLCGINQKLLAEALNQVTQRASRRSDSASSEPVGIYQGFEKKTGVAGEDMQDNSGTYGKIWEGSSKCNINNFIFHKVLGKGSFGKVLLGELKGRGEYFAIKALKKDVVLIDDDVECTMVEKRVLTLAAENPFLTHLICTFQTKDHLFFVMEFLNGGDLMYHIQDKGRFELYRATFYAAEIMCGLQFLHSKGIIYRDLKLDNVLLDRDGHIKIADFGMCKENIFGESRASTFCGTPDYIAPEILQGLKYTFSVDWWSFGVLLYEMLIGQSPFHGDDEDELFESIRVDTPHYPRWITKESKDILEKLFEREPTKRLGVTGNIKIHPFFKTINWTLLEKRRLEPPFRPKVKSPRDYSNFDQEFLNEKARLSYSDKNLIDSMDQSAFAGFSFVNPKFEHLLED

| Structure (SMILES) | Ki [1] | Ki [2] |
| --- | --- | --- |
| C=C(C)C12OC3(c4ccccc4)OC1C1C4OC4(CO)C(O)C4(O)C(=O)C(C)=CC4C1(O3)C(C)C2OC(=O)C=CC=Cc1ccccc1 (configuration not stated) [NSC_4179] | 0.55 nM | 0.27 nM |
| C=C(C)C12OC3(c4ccccc4)OC1C1C4OC4(CO)C(O)C4(O)C(=O)C(C)=CC4C1(O3)C(C)C2OC(=O)C=Cc1ccccc1 (configuration not stated) [NSC_6437389] | 1.31 nM and 10.7 nM | 0.29 nM and 0.22 nM |
| CC1=CC2C(O)(CC(CO)=CC3C4C(C)(C)C4(OC(=O)Cc4ccccc4)CC(C)C32O)C1=O (configuration not stated) [NSC_105100] | 0.56 nM | 0.14 nM |
| CCCCCCCCc1ccc2c3c(c[nH]c13)CC(CO)NC(=O)C(C(C)C)N2C (configuration not stated) [CAS_159320] | 0.77 nM | 0.53 nM |
| CC(C)C1C(=O)NC(CO)Cc2c[nH]c3cccc(c23)N1C (stereo not drawn) [(-)-Indolactam V (low PS)] | 8.16 nM and 43.1 nM | 12.6 nM |
| CCC(C)(C/C=C1/CC(CO)(COC(=O)CC(C)(CC)C(C)C)OC1=O)C(C)C (stereo not drawn) [B8-DL-B8 (low PS)] | 11.6 nM and 10 nM | 2.9 nM and 3.57 nM |

— BindingDB's records for doi:10.1124/mol.64.6.1342 (University of Pittsburgh, 2003)
